In patent US8101576B2, “Compounds and their effects on feeding behaviour” (priority 2006, dated 2012):
Square brackets hold non-standard residues; d marks the D form. Ends that are not written are not given here. * marks the point of attachment. Arachidoyl = CCCCCCCCCCCCCCCCCCCC(=O)*; Palmitoyl = CCCCCCCCCCCCCCCC(=O)*; Myristoyl = CCCCCCCCCCCCCC(=O)*

Assay: Inhibition of food intake, subcutaneous injection to fasted rats
Type: in vivo, Wistar rats
Description: Animals: All animal procedures were approved by the British Home Office Animals (Scientific Procedures) Act 1986 (Project License number 70/5516).
Study protocol: C57BL/6 mice (20-35 g) were injected with the peptide under investigation following a 20-hour fast. Wistar rats were injected following a 24-hour fast. […] A pre-weighed quantity of chow was presented immediately after injection.

## D-His Ala Asp Gly Thr Phe Thr Ser Asp Tyr Ser Lys Tyr Leu Glu Gln Glu Ile Val Lys Tyr Phe Ile Gln Trp Leu Lys Asn Gly Gly Pro Ser Lys Asn Asn Ile Ala Lys ([dH]ADGTFTSDYSKYLEQEIVKYFIQWLKNGGPSKNNIAK) [PEPTIDE NO: 202]
5 nmoles/kg, over 48 hours
  Mean cumulative food intake in comparison to saline control: potent and long acting suppression of food intake
  food intake in comparison to control group treated with native oxyntomodulin: lower than in the control group treated with native oxyntomodulin

## D-His Ala Asp Gly Thr Phe Thr Ser Asp Tyr Ser Lys Tyr Leu Glu Gln Glu Ile Val Lys Tyr Phe Leu Gln Trp Leu Lys Asn Ala Gly Pro Ser Lys Asn Asn Ile Ala ([dH]ADGTFTSDYSKYLEQEIVKYFLQWLKNAGPSKNNIA) [PEPTIDE NO: 184]
3 nmoles/kg, over 24 hours
  Mean cumulative food intake in comparison to saline control: potent and long acting suppression of food intake
  food intake in comparison to control group treated with native oxyntomodulin: lower than in the control group treated with native oxyntomodulin

## D-His Ala Asp Gly Thr Phe Thr Ser Asp Tyr Ser Lys Tyr Leu Glu Gln Glu Leu Val Lys Tyr Phe Ile Gln Trp Leu Lys Asn Ala Gly Pro Ser Lys Asn Asn Ile Ala ([dH]ADGTFTSDYSKYLEQELVKYFIQWLKNAGPSKNNIA) [PEPTIDE NO: 178]
10 nmoles/kg, over 24 hours
  Mean cumulative food intake in comparison to saline control: potent and long acting suppression of food intake
  food intake in comparison to control group treated with native oxyntomodulin: lower than in the control group treated with native oxyntomodulin

## D-His Ala Asp Gly Thr Phe Thr Ser Asp Tyr Ser Lys Tyr Leu Glu Gln Glu Leu Val Lys Tyr Phe Ile Gln Trp Leu Lys Asn Gly Gly Pro Ser Lys Asn Asn Ile Ala Lys ([dH]ADGTFTSDYSKYLEQELVKYFIQWLKNGGPSKNNIAK) [PEPTIDE NO: 205]
5 nmoles/kg, over 32 hours
  Mean cumulative food intake in comparison to saline control: potent and long acting suppression of food intake
  food intake in comparison to control group treated with native oxyntomodulin: lower than in the control group treated with native oxyntomodulin

## D-His Ala Asp Gly Thr Phe Thr Ser Asp Tyr Ser Lys Tyr Leu Glu Gln Glu Leu Val Lys Tyr Phe Leu Gln Trp Leu Lys Asn Ala Gly Pro Ser Lys Asn Asn Ile Ala ([dH]ADGTFTSDYSKYLEQELVKYFLQWLKNAGPSKNNIA) [PEPTIDE NO: 172]
3 nmoles/kg, over 24 hours
  Mean cumulative food intake in comparison to saline control: potent and long acting suppression of food intake
  food intake in comparison to control group treated with native oxyntomodulin: lower than in the control group treated with native oxyntomodulin

## D-His Ala Asp Gly Thr Phe Thr Ser Asp Tyr Ser Lys Tyr Leu Glu Glu Glu Ile Val Lys Tyr Phe Ile Gln Trp Leu Lys Asn Gly Gly Pro Ser Lys Asn Asn Ile Ala ([dH]ADGTFTSDYSKYLEEEIVKYFIQWLKNGGPSKNNIA) [PEPTIDE NO: 167]
5 nmoles/kg, 32 hours observed
  food intake suppression continues for: ≥ 32 h
5 nmoles/kg, over 32 hours
  Mean cumulative food intake in comparison to saline control: potent and long acting suppression of food intake
  food intake in comparison to control group treated with native oxyntomodulin: lower than in the control group treated with native oxyntomodulin

## D-His Ala Asp Gly Thr Phe Thr Ser Asp Tyr Ser Lys Tyr Leu Glu Glu Glu Ile Val Lys Tyr Phe Ile Gln Trp Leu Lys Asn Gly Gly Pro Ser Lys Asn Asn Ile Ala Lys ([dH]ADGTFTSDYSKYLEEEIVKYFIQWLKNGGPSKNNIAK) [PEPTIDE NO: 201]
5 nmoles/kg, over 48 hours
  Mean cumulative food intake in comparison to saline control: potent and long acting suppression of food intake
  food intake in comparison to control group treated with native oxyntomodulin: lower than in the control group treated with native oxyntomodulin

## D-His Ala Asp Gly Thr Phe Thr Ser Asp Tyr Ser Lys Tyr Leu Glu Glu Glu Ile Val Lys Tyr Phe Ile Gln Trp Leu Met Asn Thr Lys Arg Asn Lys Asn Asn Ile Ala Lys ([dH]ADGTFTSDYSKYLEEEIVKYFIQWLMNTKRNKNNIAK) [PEPTIDE NO: 203]
100 nmoles/kg, 24 hours observed
  food intake suppression continues for: ≥ 24 h
100 nmoles/kg, over 24 hours
  Mean cumulative food intake in comparison to saline control: potent and long acting suppression of food intake
  food intake in comparison to control group treated with native oxyntomodulin: lower than in the control group treated with native oxyntomodulin

## D-His Ala Asp Gly Thr Phe Thr Ser Asp Tyr Ser Lys Tyr Leu Glu Glu Glu Ile Val Lys Tyr Phe Ile Glu Trp Leu Lys Asn Gly Gly Pro Ser Lys Asn Asn Ile Ala ([dH]ADGTFTSDYSKYLEEEIVKYFIEWLKNGGPSKNNIA) [PEPTIDE NO: 164]
4 nmoles/kg, 48 hours observed
  food intake suppression continues for: ≥ 48 h
4 nmoles/kg, over 48 hours
  Mean cumulative food intake in comparison to saline control: potent and long acting suppression of food intake
  food intake in comparison to control group treated with native oxyntomodulin: lower than in the control group treated with native oxyntomodulin

## D-His Ala Asp Gly Thr Phe Thr Ser Asp Tyr Ser Lys Tyr Leu Glu Glu Glu Leu Val Lys Tyr Phe Ile Gln Trp Leu Lys Asn Gly Gly Pro Ser Lys Asn Asn Ile Ala ([dH]ADGTFTSDYSKYLEEELVKYFIQWLKNGGPSKNNIA) [PEPTIDE NO: 155]
4 nmoles/kg, 32 hours observed
  food intake suppression continues for: ≥ 32 h
4 nmoles/kg, over 32 hours
  Mean cumulative food intake in comparison to saline control: potent and long acting suppression of food intake
  food intake in comparison to control group treated with native oxyntomodulin: lower than in the control group treated with native oxyntomodulin

## D-His Ala Asp Gly Thr Phe Thr Ser Asp Tyr Ser Lys Tyr Leu Glu Glu Glu Leu Val Lys Tyr Phe Ile Gln Trp Leu Lys Asn Gly Gly Pro Ser Lys Asn Asn Ile Ala Ala Ala Lys-arachidoyl ([dH]ADGTFTSDYSKYLEEELVKYFIQWLKNGGPSKNNIAAAK(Arachidoyl)) [PEPTIDE NO: 209]
80 mmoles/kg, over 48 hours
  food intake in comparison to control group treated with native oxyntomodulin: lower than in the control group treated with native oxyntomodulin
Over 48 hours
  Mean cumulative food intake in comparison to saline control: potent and long acting suppression of food intake

## D-His Ala Asp Gly Thr Phe Thr Ser Asp Tyr Ser Lys Tyr Leu Glu Glu Glu Leu Val Lys Tyr Phe Ile Gln Trp Leu Lys Asn Gly Gly Pro Ser Lys Asn Asn Ile Ala Ala Ala Lys-myristoyl ([dH]ADGTFTSDYSKYLEEELVKYFIQWLKNGGPSKNNIAAAK(Myristoyl)) [PEPTIDE NO: 206]
80 mmoles/kg, over 48 hours
  food intake in comparison to control group treated with native oxyntomodulin: lower than in the control group treated with native oxyntomodulin
Over 48 hours
  Mean cumulative food intake in comparison to saline control: potent and long acting suppression of food intake

## D-His Ala Asp Gly Thr Phe Thr Ser Asp Tyr Ser Lys Tyr Leu Glu Glu Glu Leu Val Lys Tyr Phe Ile Gln Trp Leu Lys Asn Gly Gly Pro Ser Lys Asn Asn Ile Ala Ala Ala Lys-palmitoyl ([dH]ADGTFTSDYSKYLEEELVKYFIQWLKNGGPSKNNIAAAK(Palmitoyl)) [PEPTIDE NO: 207]
80 mmoles/kg, over 48 hours
  food intake in comparison to control group treated with native oxyntomodulin: lower than in the control group treated with native oxyntomodulin
Over 48 hours
  Mean cumulative food intake in comparison to saline control: potent and long acting suppression of food intake

## D-His Ala Asp Gly Thr Phe Thr Ser Asp Tyr Ser Lys Tyr Leu Glu Glu Glu Leu Val Lys Tyr Phe Ile Gln Trp Leu Lys Asn Gly Gly Pro Ser Lys Asn Asn Ile Ala Lys ([dH]ADGTFTSDYSKYLEEELVKYFIQWLKNGGPSKNNIAK) [PEPTIDE NO: 204]
5 nmoles/kg, over 32 hours
  Mean cumulative food intake in comparison to saline control: potent and long acting suppression of food intake
  food intake in comparison to control group treated with native oxyntomodulin: lower than in the control group treated with native oxyntomodulin

## D-His Ala Asp Gly Thr Phe Thr Ser Asp Tyr Ser Lys Tyr Leu Glu Glu Glu Leu Val Lys Tyr Phe Ile Glu Trp Leu Met Asn Thr Lys Arg Asn Lys Asn Asn Ile Ala ([dH]ADGTFTSDYSKYLEEELVKYFIEWLMNTKRNKNNIA) [PEPTIDE NO: 153]
200 mmoles/kg, over 24 hours
  Mean cumulative food intake in comparison to saline control: potent and long acting suppression of food intake
  food intake in comparison to control group treated with native oxyntomodulin: lower than in the control group treated with native oxyntomodulin

## D-His Ala Asp Gly Thr Phe Thr Ser Asp Tyr Ser Lys Tyr Leu Glu Glu Glu Leu Val Lys Tyr Phe Leu Gln Trp Leu Lys Asn Ala Gly Pro Ser Lys Asn Asn Ile Ala ([dH]ADGTFTSDYSKYLEEELVKYFLQWLKNAGPSKNNIA) [PEPTIDE NO: 148]
10 nmoles/kg, over 24 hours
  Mean cumulative food intake in comparison to saline control: potent and long acting suppression of food intake
  food intake in comparison to control group treated with native oxyntomodulin: lower than in the control group treated with native oxyntomodulin

## D-His Ala Gln Gly Thr Phe Thr Ser Asp Tyr Ser Lys Tyr Leu Glu Gln Glu Ile Val Lys Tyr Phe Ile Gln Trp Leu Lys Asn Ala Gly Pro Ser Lys Asn Asn Ile Ala ([dH]AQGTFTSDYSKYLEQEIVKYFIQWLKNAGPSKNNIA) [PEPTIDE NO: 142]
3 nmoles/kg, over 24 hours
  Mean cumulative food intake in comparison to saline control: potent and long acting suppression of food intake
  food intake in comparison to control group treated with native oxyntomodulin: lower than in the control group treated with native oxyntomodulin

## D-His Ala Gln Gly Thr Phe Thr Ser Asp Tyr Ser Lys Tyr Leu Glu Glu Glu Leu Val Lys Tyr Phe Leu Gln Trp Leu Lys Asn Ala Gly Pro Ser Lys Asn Asn Ile Ala ([dH]AQGTFTSDYSKYLEEELVKYFLQWLKNAGPSKNNIA) [PEPTIDE NO: 100]
20 nmoles/kg, over 24 hours
  Mean cumulative food intake in comparison to saline control: potent and long acting suppression of food intake
  food intake in comparison to control group treated with native oxyntomodulin: lower than in the control group treated with native oxyntomodulin
